Measurements as given in patent US20260234146A1, “Use of Hypoxia-Inducible Factor-Prolyl Hydroxylase Inhibitor (HIF-PHI) in Rare Anemia” (Kind Pharmaceutical, priority 2023, published 2026).

System: Townes SCD model mouse
Experiment: Effect on SCD anemia mice (RBC, Hb, HCT)
Format: in vivo
Experimental: Throughout the experimental stage, animals were housed in cages in an animal room with 24-hour continuous central air conditioning, temperature set at 20-26° C., relative air humidity set at 40-70%, and a 12-hour light/dark cycle. All animals had free access to food and sterilized drinking water. The animal strain was B6·Cg-Hbb^tm2(HBG1,HBB)Tow/Hbat^ml(HBA)Tow/ShmtJ mice, a Townes SCD model mouse where mouse endogenous hemoglobin is replaced by knocked-in human hemoglobin. Two weeks after birth, mice were ear-punched for identification, and the ear tissue was collected for PCR analysis to determine its genotype. Mice confirmed as B6·Cg-Hbb^tm2(HBG1,HBB)Tow/Hbat^ml(HBA)Tow/ShmtJ were grouped. […] Blood sampling was performed every other week. Mice showing symptoms of anemia were selected for dosing. Animals were randomly divided into groups, 6 animals per group: Vehicle control group (0.1 M meglumine aqueous solution; oral gavage; volume: 6.67 mL/kg), Comp-1 group (30 mpk; oral gavage; volume: 6.67 mL/kg), and EPO group (50 U/30 g body weight; SC injection; MyBioSource, cat. #: MBS650094, erythropoietin alpha). Dosing was administered three times a week (TIW) for 4 consecutive weeks. On days 14 and 28 of dosing, 70 μL of blood was collected from orbit. Collected blood samples were placed in heparin-anticoagulant tubes. 15 μL of the blood sample from the anticoagulant tube was aspirated and added to an Element HT5 Veterinary Hematology Analyzer. RBC, Hb, and HCT in the blood were measured according to the instrument's operating instructions. Data analysis was performed using GraphPad Prism 9.0. […]

[1] = 30 mg/kg group, Before dosing Week 0
[2] = 30 mg/kg oral TIW, After 2 weeks of dosing Week 2
[3] = 30 mg/kg oral TIW, After 4 weeks of dosing Week 4

`O=C(O)CNC(=O)C1=C(O)C2(CCCC2)n2c(ccc2-c2ccccc2)C1=O` [Comp-1, (6′-hydroxy-8′-oxo-3′-phenyl-8′H-spiro[cyclopentane-1,5′-indolizine]-7′-carbonyl)glycine] was tested, and the “Arithmetic mean of HCT hematocrit” value [1] was 27.20%, the “Arithmetic mean of HGB hemoglobin content” value [1] was 8.47 g/dL and the “Arithmetic mean of RBC red blood cell count” value [1] was 6.34 M/μL. The “Arithmetic mean of HCT hematocrit” value [2] was 40.05%, the “Arithmetic mean of HGB hemoglobin content” value [2] was 11.63 g/dL and the “Arithmetic mean of RBC red blood cell count” value [2] was 8.88 M/μL. For the same compound, the “Arithmetic mean of HCT hematocrit” value [3] was 41.45%, the “Arithmetic mean of HGB hemoglobin content” value [3] was 12.10 g/dL and the “Arithmetic mean of RBC red blood cell count” value [3] was 9.09 M/μL.
